Source: patent US8278072B1, “Method for synthesis of sialylated products using reversible sialylation” (Health Research, Inc., priority 2007, dated 2012)

How the values were obtained:
Assay type in all cases: biochemical
[1] = target: T1, ST3Gal II (Cloned rat liver) (Rattus norvegicus, UniProt Q11205); assay: Forward (direct) sialyltransferase activity, ST3Gal-II; conditions: donor CMP-[9-3H]NeuAc, acceptor [5], varying nucleotide concentrations
T1 construct: purchased Calbiochem
T1 sequence (Q11205 1-350): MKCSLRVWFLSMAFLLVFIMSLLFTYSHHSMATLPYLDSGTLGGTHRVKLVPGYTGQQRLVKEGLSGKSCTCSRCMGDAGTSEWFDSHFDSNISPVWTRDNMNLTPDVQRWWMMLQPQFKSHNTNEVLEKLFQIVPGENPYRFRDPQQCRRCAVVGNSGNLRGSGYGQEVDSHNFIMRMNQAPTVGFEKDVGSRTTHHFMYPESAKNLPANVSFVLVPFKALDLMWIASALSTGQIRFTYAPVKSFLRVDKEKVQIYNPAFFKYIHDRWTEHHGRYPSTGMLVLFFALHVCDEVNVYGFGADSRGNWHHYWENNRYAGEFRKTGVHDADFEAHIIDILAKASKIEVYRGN
Experimental: (§1) FIG. 5. Effect of 5′-nucleotides on direct sialyltransferase activity (panel a) and reverse sialylation (panel b). a. Varying concentrations of 5′-CDP or 5′-CMP were added to 100 mM acceptor (specified below), 0.15 mM CMP-[9-^3H]NeuAc and either ST3Gal-II (0.2 mU), ST3Gal-III (0.5 mU) or ST6Gal-I (0.2 mU) for 4 h at 37° C. Products were separated using Sep-Pak C18 method. ST3Gal-III activity was measured using acceptor 4-O-MeGalβ1,4GlcNAcβ-O-Bn in the presence of 5′-CDP (●) and 5′-CMP (◯). ST6Gal-I activity was measured using Gal β1,4GlcNAcβ-O-Bn in the presence of 5′-CDP (▴) and 5′-CMP (Δ). ST3Gal-II using D-Fucβ1,3GalNAcα-O-Bn in the presence of 5′-CDP (▪) and 5′-CMP (□). b) Reverse sialylation by ST3Gal-II was measured in reaction mixtures containing 0.2 mM [9-^3H] [3], 7 mM 5′-CMP, ST3Gal-II (2 mU), D-Fucβ1,3GalNAcα-OBn (3.0 mM) and varying doses of either 5′-CDP (▴), 5′-UMP (◯) or 2-deoxy 5′-CMP (●) for 4 hours at 37° C. Reaction product ([9-^3H]NeuAcα2,3DFucβ1,3 GalNAcα-O-Bn) was isolated using Sep-Pak C18 method. In some runs, where was absent, the amount of CMP-NeuAc produced was quantified using the Dowex-1 Formate method in the presence of varying doses of 5′-CDP (▪).
(§2) Besides pH other distinctions were also observed between forward and reverse sialylation. In this regard, citrate ions tended to inhibit forward sialylation but not reverse sialylation activity (Table V). For these studies, the effect of citrate on the forward sialylation activity of ST3Gal-I, ST3Gal-II, ST3Gal-III and ST6Gal-I was examined. Reverse sialylation activity of ST3Gal-II was also measured in terms of: i) the formation of CMP-NeuAc from 5′-CMP; and ii) the transfer of NeuAc from this newly synthesized CMP-NeuAc to another O-glycan. From the data (Table V), it is evident that citrate inhibits the direct sialylation activity of all the enzymes mentioned above. However, both the synthesis of CMP-[9-^3H]NeuAc from 5′-CMP as well as the synthesis of [9-^3H]NeuAcα2,3D-Fucβ1,3 GalNAcα-O-Bn using the newly formed CMP-[9-^3H]NeuAc through reverse sialylation of ST3Gal-II was not inhibited by citrate.
(§3) The effect of 5′-nucleotides on forward sialylation (FIG. 5a) and reverse sialylation (FIG. 5b) were examined. […] The overall formation of [9-^3H]NeuAcα2,3D-Fucβ1,3 GalNAcα-O-Bn by the two-step reverse sialylation process, however, was inhibited by 5′-CDP and this is consistent with the finding that 5′-CDP inhibits forward sialylation in the second step.

[2] = target: T2, ST3Gal III (Cloned rat liver) (Rattus norvegicus, UniProt Q02734); assay: Forward (direct) sialyltransferase activity, ST3Gal-III; conditions: donor CMP-[9-3H]NeuAc, acceptor 4-O-MeGalβ1,4GlcNAcβ-O-Bn
T2 construct: purchased Calbiochem
T2 sequence (Q02734 1-374): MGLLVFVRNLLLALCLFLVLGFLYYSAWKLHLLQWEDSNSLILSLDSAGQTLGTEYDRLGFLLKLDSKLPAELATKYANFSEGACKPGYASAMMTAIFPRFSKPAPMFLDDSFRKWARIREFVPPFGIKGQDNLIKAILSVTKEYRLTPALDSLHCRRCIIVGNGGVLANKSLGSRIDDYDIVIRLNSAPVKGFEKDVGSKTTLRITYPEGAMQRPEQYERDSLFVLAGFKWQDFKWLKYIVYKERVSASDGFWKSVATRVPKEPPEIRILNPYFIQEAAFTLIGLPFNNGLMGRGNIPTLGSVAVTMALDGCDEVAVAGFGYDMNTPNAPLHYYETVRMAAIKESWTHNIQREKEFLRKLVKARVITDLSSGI
Experimental: as §1, §2, §3

[3] = target: T3, ST6Gal I (Cloned rat liver) (Rattus norvegicus, UniProt P13721); assay: Forward (direct) sialyltransferase activity, ST6Gal-I; conditions: donor CMP-[9-3H]NeuAc, acceptor Galβ1,4GlcNAcβ-O-Bn
T3 construct: purchased Calbiochem
T3 sequence (P13721 1-403): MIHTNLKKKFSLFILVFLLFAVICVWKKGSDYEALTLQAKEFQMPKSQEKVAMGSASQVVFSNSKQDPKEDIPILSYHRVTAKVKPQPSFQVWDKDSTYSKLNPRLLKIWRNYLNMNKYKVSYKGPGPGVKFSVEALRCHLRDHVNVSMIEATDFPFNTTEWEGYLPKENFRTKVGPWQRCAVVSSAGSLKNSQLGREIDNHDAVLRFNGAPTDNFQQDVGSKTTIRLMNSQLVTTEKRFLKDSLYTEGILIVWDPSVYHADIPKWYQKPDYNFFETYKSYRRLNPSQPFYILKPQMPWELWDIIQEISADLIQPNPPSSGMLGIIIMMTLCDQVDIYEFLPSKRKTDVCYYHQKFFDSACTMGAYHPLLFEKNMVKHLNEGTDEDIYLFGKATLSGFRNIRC
Experimental: as §1, §2, §3

Nc1ccn([C@@H]2O[C@H](COP(=O)(O)O)[C@@H](O)[C@H]2O)c(=O)n1 [5′-CMP, Cytidine 5′-monophosphate]
inhibited: Effect on forward sialylation activity of ST3Gal-II [1] | Effect on forward sialylation activity of ST3Gal-III [2] | Effect on forward sialylation activity of ST6Gal-I [3]

Nc1ccn([C@@H]2O[C@H](COP(=O)(O)OP(=O)(O)O)[C@@H](O)[C@H]2O)c(=O)n1 [5′-CDP]
inhibited: Effect on forward sialylation activity of ST3Gal-II [1] | Effect on forward sialylation activity of ST3Gal-III [2] | Effect on forward sialylation activity of ST6Gal-I [3]
